Test results from PubChem BioAssay AID1963975 (Molecular Pharmacology Branch, DTP, NCI, 2024).

System: 624824-186-R-J2-PDC multicell spheroids, viability
Test: Anticancer human tumor 624824-186-R-J2-PDC patient-derived colon adenocarcinoma cell line growth inhibition [PI3K]
Details: for IC50: curve of first compound; for viability, T/C: stronger effect = lower value
From the text: Combinatorial screen of targeted agents with the PI3K inhibitors inavolisib, alpelisib, duvelisib, and copanlisib in multi-cell type tumor spheroids
A high-throughput screen of multi-cell type tumor spheroids was designed to identify active combinations of targeted small molecules and PI3K pathway inhibitors. Complex spheroids include a stromal component modeled by human endothelial cells (HUVEC) and fibroblasts modeled by human mesenchymal stem cells (MSCs). The concentration ranges selected for each drug and investigational agent were based upon clinically achievable concentrations if the clinical Cmax of the agent was known.
Compounds. The drugs and investigational agents: inavolisib (NSC800729), alpelisib (NSC765974), duvelisib (NSC772469), copanlisib (NSC816437), ipatasertib (NSC767898), afuresertib (NSC778305), talazoparib (NSC767125), sapanisertib (NSC764658), selumetinib (NSC741078), tovorafenib (DAY101, NSC766906), vemurafenib (NSC761431), ravoxertinib (NSC781343), sotorasib (NSC818433), MRTX1133 (NSC 836407), abemaciclib (NSC 768073), palbociclib (NSC758247), venetoclax (NSC 766270), SY5609 (NSC837396), enzalutamide (NSC755605), and darolutamide (NSC825331), were obtained from the National Cancer Institute (NCI) Developmental Therapeutics Program Chemical Repository. The FDA-approved anticancer drug set is available from the NCI Developmental Therapeutics Program. […] The stock solutions were prepared in dimethyl sulfoxide (DMSO, Sigma-Aldrich, St. Louis, MO, cat. D2650) at 800-fold the tested concentration and stored at -70 degrees C prior to their use. All drugs and investigational agents were tested over a range starting from a high concentration at or near the clinical Cmax and decreasing in half-log increments. If the clinical Cmax for an agent had not been determined, the highest concentration tested was 10 microM.
Cell Culture. All cells were maintained in an incubator at 37 degrees C and 5% CO2 with 95% humidity. The PDC lines were cultured according to standard operating procedures established by the NCI PDMR (https://pdmr.cancer.gov/sops/default.htm). All PDCs were thawed and cultured in Matrigel-coated flasks prepared with a working solution of 1X Ham's F-12 nutrient mix, without supplementation (Invitrogen, Waltham, MA, cat. 11765054), 100 U/mL penicillin-streptomycin (Invitrogen, cat. 15140122), and 2.5% Matrigel (Corning Inc., Corning, NY, cat. 354248) for the first three passages. The 354836-022-R-J1-PDC, 475296-252-R-J1-PDC, and 997726-040-R-J2-PDC lines were cultured in 6A media, which includes advanced DMEM/F-12 (Thermo Fisher Scientific, cat. 12634028), 10 mM HEPES (Thermo Fisher Scientific, cat. 15630080), 1X GlutaMAX supplement (Thermo Fisher Scientific, cat. 35050061), 0.1 mg/mL primocin (InvivoGen, San Diego, CA, cat. ant-pm-2), 10% defined fetal bovine serum, heat inactivated (HyClone Laboratories Inc., Logan, UT, cat. SH30070.03HI), 50% L-WRN conditioned media (ATCC, cat. CRL-3276), 1.25 mM N-Acetyl-L-cysteine (Sigma-Aldrich, cat. A9165), 10 mM nicotinamide (Sigma-Aldrich, cat. N0636), 1X B-27 supplement (Thermo Fisher Scientific, cat. 17504044), 1X N-2 supplement (Thermo Fisher Scientific, cat. 17502048), and 10 microM Y-27632 dihydrochloride (Tocris Bioscience, Bristol, United Kingdom, cat. 1254). The 624824-186-R-J2-PDC line was cultured in 6C/Colon 1B media, which includes all 6A media components plus 50 ng/mL human EGF recombinant protein (Thermo Fisher Scientific, cat. PHG0311). […]
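Note: spheroids exposed to agents for 7 days before viability read.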
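Throughout, for viability, T/C: 100% = DMSO vehicle treated spheroids.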

Cn1cnc2c(F)c(Nc3ccc(Br)cc3Cl)c(C(=O)NOCCO)cc21 + COc1c(OCCCN2CCOCC2)ccc2c3n(c(=NC(=O)c4cnc(N)nc4)nc12)CCN3
IC50 (second compound 0.00316 µM): > 3 µM
IC50 (second compound 0.01 µM): > 3 µM
IC50 (second compound 0.0316 µM): 0.243 µM
IC50 (second compound 0.1 µM): 0.038 µM
IC50 (second compound 0.316 µM): < 0.00949 µM
IC50 (second compound 1 µM): < 0.00949 µM
viability, T/C (second compound 0.00316 µM, first compound 0.00949 µM): 86%
viability, T/C (second compound 0.00316 µM, first compound 0.03 µM): 74.6%
viability, T/C (second compound 0.00316 µM, first compound 0.0949 µM): 64.4%
viability, T/C (second compound 0.00316 µM, first compound 0.3 µM): 68.7%
viability, T/C (second compound 0.00316 µM, first compound 0.949 µM): 72.8%
viability, T/C (second compound 0.00316 µM, first compound 3 µM): 63.1%
viability, T/C (second compound 0.01 µM, first compound 0.00949 µM): 79.3%
viability, T/C (second compound 0.01 µM, first compound 0.03 µM): 75.7%
viability, T/C (second compound 0.01 µM, first compound 0.0949 µM): 66.5%
viability, T/C (second compound 0.01 µM, first compound 0.3 µM): 62.6%
viability, T/C (second compound 0.01 µM, first compound 0.949 µM): 62.8%
viability, T/C (second compound 0.01 µM, first compound 3 µM): 51.4%
viability, T/C (second compound 0.0316 µM, first compound 0.00949 µM): 70.8%
viability, T/C (second compound 0.0316 µM, first compound 0.03 µM): 59.2%
viability, T/C (second compound 0.0316 µM, first compound 0.0949 µM): 53%
viability, T/C (second compound 0.0316 µM, first compound 0.3 µM): 51.5%
viability, T/C (second compound 0.0316 µM, first compound 0.949 µM): 42.4%
viability, T/C (second compound 0.0316 µM, first compound 3 µM): 28.5%
viability, T/C (second compound 0.1 µM, first compound 0.00949 µM): 60%
viability, T/C (second compound 0.1 µM, first compound 0.03 µM): 54.6%
viability, T/C (second compound 0.1 µM, first compound 0.0949 µM): 36%
viability, T/C (second compound 0.1 µM, first compound 0.3 µM): 37.4%
viability, T/C (second compound 0.1 µM, first compound 0.949 µM): 31.4%
viability, T/C (second compound 0.1 µM, first compound 3 µM): 15.3%
viability, T/C (second compound 0.316 µM, first compound 0.00949 µM): 50.7%
viability, T/C (second compound 0.316 µM, first compound 0.03 µM): 38.9%
viability, T/C (second compound 0.316 µM, first compound 0.0949 µM): 39.9%
viability, T/C (second compound 0.316 µM, first compound 0.3 µM): 28.3%
viability, T/C (second compound 0.316 µM, first compound 0.949 µM): 18.9%
viability, T/C (second compound 0.316 µM, first compound 3 µM): 2.2%
viability, T/C (second compound 1 µM, first compound 0.00949 µM): 49.1%
viability, T/C (second compound 1 µM, first compound 0.03 µM): 39.7%
viability, T/C (second compound 1 µM, first compound 0.0949 µM): 33.5%
viability, T/C (second compound 1 µM, first compound 0.3 µM): 26.4%
viability, T/C (second compound 1 µM, first compound 0.949 µM): 11.1%
viability, T/C (second compound 1 µM, first compound 3 µM): 1.13%

CNC(=O)c1ccc(N2C(=S)N(c3ccc(C#N)c(C(F)(F)F)c3)C(=O)C2(C)C)cc1F + Cc1nc(NC(=O)N2CCCC2C(N)=O)sc1-c1ccnc(C(C)(C)C(F)(F)F)c1
IC50 (second compound 0.0316 µM): > 10 µM
IC50 (second compound 0.1 µM): > 10 µM
IC50 (second compound 0.316 µM): > 10 µM
IC50 (second compound 1 µM): > 10 µM
IC50 (second compound 3.16 µM): > 10 µM
IC50 (second compound 10 µM): > 10 µM
viability, T/C (second compound 0.0316 µM, first compound 0.0316 µM): 87.5%
viability, T/C (second compound 0.0316 µM, first compound 0.1 µM): 108%
viability, T/C (second compound 0.0316 µM, first compound 0.316 µM): 102%
viability, T/C (second compound 0.0316 µM, first compound 1 µM): 108%
viability, T/C (second compound 0.0316 µM, first compound 3.16 µM): 94.1%
viability, T/C (second compound 0.0316 µM, first compound 10 µM): 121%
viability, T/C (second compound 0.1 µM, first compound 0.0316 µM): 85.6%
viability, T/C (second compound 0.1 µM, first compound 0.1 µM): 87.5%
viability, T/C (second compound 0.1 µM, first compound 0.316 µM): 78.3%
viability, T/C (second compound 0.1 µM, first compound 1 µM): 90.6%
viability, T/C (second compound 0.1 µM, first compound 3.16 µM): 90.4%
viability, T/C (second compound 0.1 µM, first compound 10 µM): 114%
viability, T/C (second compound 0.316 µM, first compound 0.0316 µM): 76.1%
viability, T/C (second compound 0.316 µM, first compound 0.1 µM): 86.1%
viability, T/C (second compound 0.316 µM, first compound 0.316 µM): 97.8%
viability, T/C (second compound 0.316 µM, first compound 1 µM): 94.4%
viability, T/C (second compound 0.316 µM, first compound 3.16 µM): 81.9%
viability, T/C (second compound 0.316 µM, first compound 10 µM): 96.2%
viability, T/C (second compound 1 µM, first compound 0.0316 µM): 79.1%
viability, T/C (second compound 1 µM, first compound 0.1 µM): 78.9%
viability, T/C (second compound 1 µM, first compound 0.316 µM): 99%
viability, T/C (second compound 1 µM, first compound 1 µM): 96.7%
viability, T/C (second compound 1 µM, first compound 3.16 µM): 113%
viability, T/C (second compound 1 µM, first compound 10 µM): 90.9%
viability, T/C (second compound 3.16 µM, first compound 0.0316 µM): 81.3%
viability, T/C (second compound 3.16 µM, first compound 0.1 µM): 92.2%
viability, T/C (second compound 3.16 µM, first compound 0.316 µM): 89.1%
viability, T/C (second compound 3.16 µM, first compound 1 µM): 84.7%
viability, T/C (second compound 3.16 µM, first compound 3.16 µM): 101%
viability, T/C (second compound 3.16 µM, first compound 10 µM): 86.4%
viability, T/C (second compound 10 µM, first compound 0.0316 µM): 81.5%
viability, T/C (second compound 10 µM, first compound 0.1 µM): 74.8%
viability, T/C (second compound 10 µM, first compound 0.316 µM): 73%
viability, T/C (second compound 10 µM, first compound 1 µM): 73.9%
viability, T/C (second compound 10 µM, first compound 3.16 µM): 79.1%
viability, T/C (second compound 10 µM, first compound 10 µM): 65%
